# Read-outs that look alike come from different tables or passages of the source.
# How the values were obtained:
# [1] = test system: Gram positive bacteria, including staphylococci and streptococci; test: In vitro antibacterial activity, summary statement; assay type: cell-based
# [2] = test system: Peptstreptococcus asaccharolyticus; settings: 48 h
# Moraxella catharralis [3] = test system: Moraxella catharralis
# Clostridium butyricum [4] = settings: 48 h
# [5] = test system: Candida albicans ATCC 90028; settings: ATCC 90028, 48 h
# Streptococcus pyogenes [6] = test system: Streptococcus pyogenes
# [7] = test system: Enterococcus faecium VanS
# [8] = test system: Staphylococcus aureus Met-S ATCC6538P; settings: ATCC6538
# Clostridium difficile [9] = test system: Clostridium difficile
# Streptococcus pneumoniae [10] = test system: Streptococcus pneumoniae
# Escherichia coli [11] = test system: Escherichia coli
# [12] = test system: Staphylococcus aureus Met-R
# [13] = test system: Bacteroides fragilis ATCC 25285; settings: ATCC 25285, 48 h
# [14] = test system: Enterococcus faecalis VanS
# [15] = test system: Clostridium butyricum and Clostridium perfrigens
# [16] = test system: Enterococcus faecium VanA
# [17] = test system: Enterococcus faecalis VanA
# Clostridium perfrigens [18] = test system: Clostridium perfrigens
# Clostridium butyricum [19] = test: microbe, parasite or virus in culture; settings: 48 h, read-out: Minimal Inhibitory Concentration
# [20] = test system: Enterococcus faecium VanS; test: microbe, parasite or virus in culture
# Clostridium difficile [21] = test: microbe, parasite or virus in culture; settings: Clostridioides difficile, 48 h
# [22] = test system: Staphylococcus aureus Met-S ATCC6538P; test: microbe, parasite or virus in culture
# Escherichia coli [23] = test: microbe, parasite or virus in culture; settings: read-out: Minimal Inhibitory Concentration
# Moraxella catharralis [24] = test: microbe, parasite or virus in culture; settings: read-out: Minimal Inhibitory Concentration
# [25] = test system: Enterococcus faecium VanA; test: microbe, parasite or virus in culture; settings: read-out: Minimal Inhibitory Concentration
# [26] = test system: Peptstreptococcus asaccharolyticus; test: organism not typed; settings: 48 h, read-out: Minimal Inhibitory Concentration
# Streptococcus pyogenes [27] = test: microbe, parasite or virus in culture; settings: read-out: Minimal Inhibitory Concentration
# [28] = test system: Staphylococcus aureus Met-S ATCC19636; test: microbe, parasite or virus in culture
# [29] = test system: Staphylococcus aureus Met-R; test: microbe, parasite or virus in culture; settings: read-out: Minimal Inhibitory Concentration
# [30] = test system: Bacteroides fragilis ATCC 25285; test: microbe, parasite or virus in culture; settings: ATCC25285, 48 h, read-out: Minimal Inhibitory Concentration
# [31] = test system: Enterococcus faecalis VanA; test: microbe, parasite or virus in culture; settings: read-out: Minimal Inhibitory Concentration
# Clostridium perfrigens [32] = test: microbe, parasite or virus in culture; settings: 48 h, read-out: Minimal Inhibitory Concentration
# Streptococcus pneumoniae [33] = test: microbe, parasite or virus in culture; settings: read-out: Minimal Inhibitory Concentration
# [34] = test system: Enterococcus faecalis VanS; test: microbe, parasite or virus in culture
# [35] = test system: Candida albicans ATCC 90028; test: microbe, parasite or virus in culture; settings: ATCC90028, 48 h, read-out: Minimal Inhibitory Concentration
# [36] = range over codes 4013, 1365, 4015
smiles,measurement,setting,value
CC[C@H](C)[C@@H]1NC(=O)C2NC(=O)[C@H](CC(C)C)NC(=O)C(NC(=O)C3CSCC(NC(=O)[C@H](C)N)C(=O)N[C@@H](CO)C(=O)NCC(=O)N[C@@H](Cc4c[nH]c5ccccc45)C(=O)N[C@@H](C(C)C)C(=O)N3)C(C)SCC(NC(=O)[C@H](CCC(=O)O)NC1=O)C(=O)NCC(=O)NC1C(=O)N[C@@H](C(C)C)C(=O)N[C@@H]([C@@H](C)CC)C(=O)NC(CSC2C)C(=O)N[C@@H](C)C(=O)NC(C(=O)N[C@@H](CCCNC(=N)N)C(=O)NCCN)C[S+]([O-])C1C (some centres unmarked) [NAI-802 monoamide with ethylendiamine],antibacterial activity compared to native NAI-802,[1]; against certain organisms,more antibacterial active
same,Minimal Inhibitory Concentration,[2],0.5 mg/L
same,Minimal Inhibitory Concentration,Moraxella catharralis [3],32 mg/L
same,Minimal Inhibitory Concentration,Clostridium butyricum [4],1 mg/L
same,Minimal Inhibitory Concentration,[5],>128 mg/L
same,Minimal Inhibitory Concentration,"Streptococcus pyogenes [6]; code 49, Todd Hewitt broth",≦0.125 mg/L
same,Minimal Inhibitory Concentration,[7],32 mg/L
same,Minimal Inhibitory Concentration,[8],4 mg/L
same,Minimal Inhibitory Concentration,"Clostridium difficile [9]; code 4013, anaerobic, 48 hours",≦0.125 mg/L
same,"Minimal Inhibitory Concentration, range",Clostridium difficile [9]; [36],≦0.125-1 mg/L
same,Minimal Inhibitory Concentration,Streptococcus pneumoniae [10],2 mg/L
same,Minimal Inhibitory Concentration,Escherichia coli [11],>128 mg/L
same,Minimal Inhibitory Concentration,[12],8 mg/L
same,Minimal Inhibitory Concentration,[13],>128 mg/L
same,Minimal Inhibitory Concentration,[14],32 mg/L
same,"Minimal Inhibitory Concentration, range",[15],1 to 8 mg/L
same,Minimal Inhibitory Concentration,[16],16 mg/L
same,Minimal Inhibitory Concentration,[17],32 mg/L
CC[C@H](C)[C@@H]1NC(=O)C2NC(=O)[C@H](CC(C)C)NC(=O)C(NC(=O)C3CSCC(NC(=O)[C@H](C)N)C(=O)N[C@@H](CO)C(=O)NCC(=O)N[C@@H](Cc4c[nH]c5ccccc45)C(=O)N[C@@H](C(C)C)C(=O)N3)C(C)SCC(NC(=O)[C@H](CCC(=O)O)NC1=O)C(=O)NCC(=O)NC1C(=O)N[C@@H](C(C)C)C(=O)N[C@@H]([C@@H](C)CC)C(=O)NC(CSC2C)C(=O)N[C@@H](C)C(=O)NC(C(=O)N[C@@H](CCCNC(=N)N)C(=O)O)C[S+]([O-])C1C (some centres unmarked) [NAI-802],Minimal Inhibitory Concentration,Clostridium perfrigens [18]; 48 h,2 mg/L
same,antibacterial activity against Gram positive bacteria,[1]; including staphylococci and streptococci,antibacterial activity against Gram positive bacteria
same,Minimal Inhibitory Concentration,[2],1 mg/L
same,Minimal Inhibitory Concentration,Moraxella catharralis [3],64 mg/L
same,Minimal Inhibitory Concentration,Clostridium butyricum [4],0.25 mg/L
same,Minimal Inhibitory Concentration,[5],>128 mg/L
same,Minimal Inhibitory Concentration,Streptococcus pyogenes [6],0.5 mg/L
same,Minimal Inhibitory Concentration,[7],>128 mg/L
same,"Minimal Inhibitory Concentration, range",Clostridium difficile [9],0.25 to 2 mg/L
same,Minimal Inhibitory Concentration,Streptococcus pneumoniae [10],8 mg/L
same,Minimal Inhibitory Concentration,Escherichia coli [11],>128 mg/L
same,Minimal Inhibitory Concentration,[12],32 mg/L
same,Minimal Inhibitory Concentration,[13],>128 mg/L
same,Minimal Inhibitory Concentration,[14],128 mg/L
same,"Minimal Inhibitory Concentration, range",[15],0.25 to 2 mg/L
same,Minimal Inhibitory Concentration,[16],128 mg/L
same,Minimal Inhibitory Concentration,[17],128 mg/L
"CN[C@H](CC(C)C)C(=O)N[C@H]1C(=O)N[C@@H](CC(N)=O)C(=O)N[C@H]2C(=O)N[C@H]3C(=O)N[C@H](C(=O)N[C@H](C(=O)O)c4cc(O)cc(O)c4-c4cc3ccc4O)[C@H](O)c3ccc(c(Cl)c3)Oc3cc2cc(c3O[C@@H]2O[C@H](CO)[C@@H](O)[C@H](O)[C@H]2O[C@H]2C[C@](C)(N)[C@H](O)[C@H](C)O2)Oc2ccc(cc2Cl)[C@H]1O [VA, vancomycin]",MIC,Clostridium butyricum [19],1 µg/mL
same,MIC,"[20]; read-out: Minimal Inhibitory Concentration, code 568",2 µg/mL
same,MIC,"[20]; read-out: Minimal Inhibitory Concentration, code 568, +30% bovine serum",4 µg/mL
same,Minimal Inhibitory Concentration,"Clostridium perfrigens [18]; code 3607, anaerobic, 48 hours",1 mg/L
same,Minimal Inhibitory Concentration,Moraxella catharralis [3]; code 3294,>128 mg/L
same,MIC,"Clostridium difficile [21]; read-out: Minimal Inhibitory Concentration, code 1365, anaerobic",0.5 µg/mL
same,MIC,"Clostridium difficile [21]; read-out: Minimal Inhibitory Concentration, code 4013, anaerobic",0.25 µg/mL
same,MIC,"Clostridium difficile [21]; read-out: Minimal Inhibitory Concentration, code 4015, anaerobic",0.25 µg/mL
same,MIC,"[22]; read-out: Minimal Inhibitory Concentration, code 100, +30% bovine serum",1 µg/mL
same,MIC,"[22]; read-out: Minimal Inhibitory Concentration, code 100, CAMHB",0.25 µg/mL
same,MIC,Escherichia coli [23],> 128 µg/mL
same,MIC,Moraxella catharralis [24],> 128 µg/mL
same,MIC,[25],> 128 µg/mL
same,MIC,[26],0.5 µg/mL
same,MIC,Streptococcus pyogenes [27],0.25 µg/mL
same,"Minimal Inhibitory Concentration, range",Clostridium difficile [9]; [36],0.25 to 0.5 mg/L
same,MIC,"[28]; ATCC19636, read-out: Minimal Inhibitory Concentration, code 819, +30% bovine serum",1 µg/mL
same,MIC,"[28]; ATCC19636, read-out: Minimal Inhibitory Concentration, code 819, CAMHB",0.5 µg/mL
same,MIC,[29],0.5 µg/mL
same,MIC,[30],32 µg/mL
same,MIC,[31],> 128 µg/mL
same,MIC,Clostridium perfrigens [32],1 µg/mL
same,MIC,Streptococcus pneumoniae [33],0.5 µg/mL
same,"Minimal Inhibitory Concentration, range",[15],1 mg/L
same,MIC,"[34]; read-out: Minimal Inhibitory Concentration, code 559",1 µg/mL
same,MIC,"[34]; read-out: Minimal Inhibitory Concentration, code 559, +30% bovine serum",2 µg/mL
same,MIC,[35],> 128 µg/mL

# From patent publication US20140094402A1, “Lantibiotic NAI-802, Pharmaceutically Acceptable Salts, Compositions and Uses Thereof” ([…] PHARMACEUTICALS, INC., priority 2011, published 2014)
